pIC50: −log10 of the molar value. Active and inactive are the calls of the source. The rule behind the calls is not given here.
Assays:
[1] = molecular target: Acetylcholinesterase (Homo sapiens, UniProt P22303); assay: Inhibition of human recombinant AChE preincubated for 1 min in presence of DNTB followed by addition of acetylthiocholine iodide substrate and measured after 20 mins by Ellman's method
[2] = molecular target: Acetylcholinesterase (Electrophorus electricus, UniProt O42275); assay: Inhibition of electric eel recombinant AChE preincubated for 1 min in presence of DNTB followed by addition of acetylthiocholine iodide substrate and measured after 20 mins by Ellman's method
[3] = molecular target: Cholinesterase (Homo sapiens, UniProt P06276); assay: Inhibition of BChE (unknown origin)
Sequence of Cholinesterase (P06276 whole entry): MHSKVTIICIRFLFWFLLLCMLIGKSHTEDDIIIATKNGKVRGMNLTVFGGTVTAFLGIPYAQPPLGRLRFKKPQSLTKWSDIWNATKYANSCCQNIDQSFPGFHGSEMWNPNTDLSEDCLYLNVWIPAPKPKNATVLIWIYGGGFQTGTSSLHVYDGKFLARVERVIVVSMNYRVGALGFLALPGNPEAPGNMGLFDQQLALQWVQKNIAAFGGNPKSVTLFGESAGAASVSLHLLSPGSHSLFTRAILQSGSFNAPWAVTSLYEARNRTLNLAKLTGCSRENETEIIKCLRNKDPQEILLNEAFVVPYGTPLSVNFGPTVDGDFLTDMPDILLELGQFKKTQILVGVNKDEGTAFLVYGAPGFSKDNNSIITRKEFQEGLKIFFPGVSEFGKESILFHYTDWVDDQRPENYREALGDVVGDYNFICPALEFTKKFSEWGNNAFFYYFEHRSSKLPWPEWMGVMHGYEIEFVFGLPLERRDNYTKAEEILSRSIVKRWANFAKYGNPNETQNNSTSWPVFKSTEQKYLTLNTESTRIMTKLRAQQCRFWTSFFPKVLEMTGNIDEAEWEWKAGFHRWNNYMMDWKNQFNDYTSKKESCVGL

[4] = molecular target: Cholinesterases; ACHE & BCHE (Homo sapiens) (UniProt P06276+P22303); assay: Selectivity index, ratio of IC50 for BChE (unknown origin) to IC50 for human recombinant AChE; type: protein assay
Sequence of Cholinesterases; ACHE & BCHE (Homo sapiens) (P06276 whole entry, looked up): as the sequence (P06276 whole entry) above
Sequence of Cholinesterases; ACHE & BCHE (Homo sapiens) (P22303 whole entry, looked up): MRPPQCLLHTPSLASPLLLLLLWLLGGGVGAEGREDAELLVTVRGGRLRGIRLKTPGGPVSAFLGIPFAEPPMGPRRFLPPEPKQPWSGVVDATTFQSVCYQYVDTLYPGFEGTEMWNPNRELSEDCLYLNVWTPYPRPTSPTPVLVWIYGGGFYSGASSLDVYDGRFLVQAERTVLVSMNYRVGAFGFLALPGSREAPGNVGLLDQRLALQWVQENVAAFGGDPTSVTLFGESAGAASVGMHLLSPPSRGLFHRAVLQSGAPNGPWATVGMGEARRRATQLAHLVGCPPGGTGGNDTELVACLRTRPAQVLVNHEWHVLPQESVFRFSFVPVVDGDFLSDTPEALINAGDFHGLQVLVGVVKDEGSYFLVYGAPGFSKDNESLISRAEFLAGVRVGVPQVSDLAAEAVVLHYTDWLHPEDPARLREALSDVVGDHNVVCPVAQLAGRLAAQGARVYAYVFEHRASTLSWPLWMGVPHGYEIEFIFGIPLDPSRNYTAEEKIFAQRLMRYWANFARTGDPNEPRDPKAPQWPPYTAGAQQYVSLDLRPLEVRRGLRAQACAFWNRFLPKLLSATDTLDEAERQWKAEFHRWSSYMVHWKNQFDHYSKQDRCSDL

[5] = molecular target: Cyclin-dependent kinase 2 (Homo sapiens) (UniProt P24941); assay: Inhibition of CDK2 (unknown origin) at 0.3 uM
[6] = molecular target: Cyclin-dependent kinase 6 (Homo sapiens) (UniProt Q00534); assay: Inhibition of CDK6 (unknown origin) at 0.3 uM
Sequence of Cyclin-dependent kinase 6 (Homo sapiens) (Q00534 whole entry): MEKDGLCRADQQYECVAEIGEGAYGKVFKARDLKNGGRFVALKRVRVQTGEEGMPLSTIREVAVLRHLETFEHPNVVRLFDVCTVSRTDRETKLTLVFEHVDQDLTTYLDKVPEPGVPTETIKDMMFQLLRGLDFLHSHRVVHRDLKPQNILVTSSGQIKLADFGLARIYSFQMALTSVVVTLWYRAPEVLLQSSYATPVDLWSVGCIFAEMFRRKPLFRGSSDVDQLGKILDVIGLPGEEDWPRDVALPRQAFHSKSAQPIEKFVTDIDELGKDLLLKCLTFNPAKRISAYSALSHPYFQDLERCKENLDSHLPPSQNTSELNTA

[7] = molecular target: Mitogen-activated protein kinase 3 (Homo sapiens) (UniProt P27361); assay: Inhibition of ERK1 (unknown origin) at 0.3 uM
Sequence of Mitogen-activated protein kinase 3 (Homo sapiens) (P27361 whole entry): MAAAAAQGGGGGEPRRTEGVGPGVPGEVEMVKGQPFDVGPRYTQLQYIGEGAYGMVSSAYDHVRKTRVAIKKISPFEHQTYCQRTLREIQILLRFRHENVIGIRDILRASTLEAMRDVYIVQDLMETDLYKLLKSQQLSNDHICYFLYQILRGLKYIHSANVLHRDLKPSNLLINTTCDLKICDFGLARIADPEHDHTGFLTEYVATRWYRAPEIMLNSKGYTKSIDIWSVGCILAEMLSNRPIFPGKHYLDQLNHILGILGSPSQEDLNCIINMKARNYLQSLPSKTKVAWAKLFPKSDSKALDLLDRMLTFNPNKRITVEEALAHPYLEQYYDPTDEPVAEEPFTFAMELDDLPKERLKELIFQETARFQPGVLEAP

[8] = molecular target: Mitogen-activated protein kinase 1 (Homo sapiens) (UniProt P28482); assay: Inhibition of ERK2 (unknown origin) at 0.3 uM
Sequence of Mitogen-activated protein kinase 1 (Homo sapiens) (P28482 whole entry): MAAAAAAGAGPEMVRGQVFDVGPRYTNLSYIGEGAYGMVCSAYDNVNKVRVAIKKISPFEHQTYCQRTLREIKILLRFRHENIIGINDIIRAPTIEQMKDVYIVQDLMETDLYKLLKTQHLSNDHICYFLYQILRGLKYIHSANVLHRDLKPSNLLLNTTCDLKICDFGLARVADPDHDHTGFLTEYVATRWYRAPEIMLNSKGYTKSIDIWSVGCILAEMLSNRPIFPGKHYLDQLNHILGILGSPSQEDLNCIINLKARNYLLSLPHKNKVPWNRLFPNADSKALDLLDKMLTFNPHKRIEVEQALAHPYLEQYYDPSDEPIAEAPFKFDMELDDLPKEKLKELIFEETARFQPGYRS

[9] = molecular target: Mitogen-activated protein kinase 14 (Homo sapiens) (UniProt Q16539); assay: Inhibition of p38alpha (unknown origin) at 0.3 uM
Sequence of Mitogen-activated protein kinase 14 (Homo sapiens) (Q16539 whole entry): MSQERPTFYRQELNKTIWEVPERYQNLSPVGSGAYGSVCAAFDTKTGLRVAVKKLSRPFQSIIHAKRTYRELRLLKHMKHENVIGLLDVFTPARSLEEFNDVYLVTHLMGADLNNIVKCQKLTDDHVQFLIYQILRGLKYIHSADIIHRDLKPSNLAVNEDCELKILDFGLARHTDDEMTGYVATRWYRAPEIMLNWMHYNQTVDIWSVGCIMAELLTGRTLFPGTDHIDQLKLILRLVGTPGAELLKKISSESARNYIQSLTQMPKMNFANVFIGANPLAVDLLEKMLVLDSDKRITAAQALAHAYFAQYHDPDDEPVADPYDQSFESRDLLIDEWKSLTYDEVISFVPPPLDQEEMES

[10] = molecular target: Mitogen-activated protein kinase 12 (Homo sapiens) (UniProt P53778); assay: Inhibition of p38gamma (unknown origin) at 0.3 uM
Sequence of Mitogen-activated protein kinase 12 (Homo sapiens) (P53778 whole entry): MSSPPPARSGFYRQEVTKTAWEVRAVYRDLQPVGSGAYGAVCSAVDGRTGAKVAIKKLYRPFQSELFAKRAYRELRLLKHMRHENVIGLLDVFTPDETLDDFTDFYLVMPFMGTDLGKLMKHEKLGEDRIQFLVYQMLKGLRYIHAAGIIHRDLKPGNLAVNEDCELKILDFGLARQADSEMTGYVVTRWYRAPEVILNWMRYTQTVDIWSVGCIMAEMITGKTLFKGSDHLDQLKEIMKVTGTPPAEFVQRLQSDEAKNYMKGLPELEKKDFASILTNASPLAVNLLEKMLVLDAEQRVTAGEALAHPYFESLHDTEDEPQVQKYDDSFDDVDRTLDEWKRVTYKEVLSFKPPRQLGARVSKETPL

[11] = molecular target: Mitogen-activated protein kinase 13 (Homo sapiens) (UniProt O15264); assay: Inhibition of p38delta (unknown origin) at 0.3 uM
[12] = molecular target: Dual specificity tyrosine-phosphorylation-regulated kinase 1A (Homo sapiens) (UniProt Q13627); assay: Inhibition of dyrk1 alpha (unknown origin) at 0.3 uM
[13] = molecular target: Mitogen-activated protein kinase 9 (Homo sapiens) (UniProt P45984); assay: Inhibition of JNK2 (unknown origin) at 0.3 uM
[14] = Effective permeability of the compound by PAMPA-BBB assay; type: ADME; conditions: read-out: Peff
[15] = Drug level in ICR mouse brain at 10 mg/kg, po measured after 1.5 hrs by LC/MS/MS analysis; type: ADME, organism-based; conditions: read-out: Ct
[16] = Drug level in ICR mouse plasma at 10 mg/kg, po measured after 1 hr by LC/MS/MS analysis; type: ADME, organism-based
[17] = Ratio of drug level in brain to plasma of ICR mouse at 10 mg/kg, po measured after 1 hr by LC/MS/MS analysis; type: ADME, organism-based; conditions: brain and plasma
[18] = Ratio of drug level in brain to plasma of ICR mouse at 10 mg/kg, po measured after 1.5 hrs by LC/MS/MS analysis; type: ADME, organism-based; conditions: brain and plasma
[19] = tested on: HT-22; assay: Neuroprotective activity in mouse HT-22 cells assessed as glutamate-induced cell mortality at 6 uM preincubated for 1 hr followed by addition of glutamate and measured after 24 hrs (reference value: 58%); type: functional; conditions: time 25 hrs
[20] = AUC (0 to infinity) in Sprague-Dawley rat at 10 mg/kg, po measured up to 24 hrs by LC-MS/MS analysis; type: ADME, organism-based; design: route oral, dose 10 mg/kg, time <=24; conditions: in vivo
[21] = AUC (0 to infinity) in Sprague-Dawley rat at 1 mg/kg, iv measured up to 24 hrs by LC-MS/MS analysis; type: ADME, organism-based; design: route intravenous, dose 1 mg/kg, time <=24; conditions: in vivo
[22] = Cmax in Sprague-Dawley rat at 10 mg/kg, po measured up to 24 hrs by LC-MS/MS analysis; type: ADME, organism-based; design: route oral, dose 10 mg/kg, time <=24; conditions: in vivo
[23] = Half life in Sprague-Dawley rat at 10 mg/kg, po measured up to 24 hrs by LC-MS/MS analysis; type: ADME, organism-based; conditions: in vivo
[24] = Half life in Sprague-Dawley rat at 1 mg/kg, iv measured up to 24 hrs by LC-MS/MS analysis; type: ADME, organism-based; conditions: in vivo
[25] = MRT (0 to infinity) in Sprague-Dawley rat at 10 mg/kg, po measured up to 24 hrs by LC-MS/MS analysis; type: ADME, organism-based; conditions: in vivo
[26] = MRT (0 to infinity) in Sprague-Dawley rat at 1 mg/kg, iv measured up to 24 hrs by LC-MS/MS analysis; type: ADME, organism-based; conditions: in vivo
[27] = molecular target: Glycogen synthase kinase-3 beta (Mus musculus) (UniProt Q9WV60); assay: Inhibition of GSK3beta in glutamate-induced mouse HT-22 cells assessed as increase in synaptophysin level at 0.6 uM pretreated with glutamate for 24 hrs followed by compound treatment by immunocytochemistry assay; type: cell-based
Sequence of Glycogen synthase kinase-3 beta (Mus musculus) (Q9WV60 whole entry, looked up): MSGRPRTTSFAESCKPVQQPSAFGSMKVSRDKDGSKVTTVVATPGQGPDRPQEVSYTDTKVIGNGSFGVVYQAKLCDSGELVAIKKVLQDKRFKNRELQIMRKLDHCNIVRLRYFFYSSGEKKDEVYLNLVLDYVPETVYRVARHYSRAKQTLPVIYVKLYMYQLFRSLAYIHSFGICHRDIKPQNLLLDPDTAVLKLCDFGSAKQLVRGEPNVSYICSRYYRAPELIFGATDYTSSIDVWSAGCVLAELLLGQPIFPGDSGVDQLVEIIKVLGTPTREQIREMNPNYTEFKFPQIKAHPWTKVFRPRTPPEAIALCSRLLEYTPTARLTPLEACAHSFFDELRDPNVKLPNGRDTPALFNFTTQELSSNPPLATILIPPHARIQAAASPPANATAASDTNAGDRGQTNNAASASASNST

[28] = molecular target: Glycogen synthase kinase-3 beta (Mus musculus) (UniProt Q9WV60); assay: Inhibition of GSK3beta in mouse N2a cells overexpressing human tau assessed as decrease in tau phosphorylation at Ser396 residue at 0.9 uM measured after 6 hrs by Western blot assay; type: cell-based
[29] = molecular target: Glycogen synthase kinase-3 beta (Mus musculus) (UniProt Q9WV60); assay: Inhibition of GSK3beta in mouse N2a cells overexpressing human tau assessed as decrease in tau phosphorylation at Ser 396 residue measured after 6 hrs by Western blot assay; type: cell-based
[30] = tested on: Mus musculus; assay: Improvement in learning and spatial memory in amyloid beta (1 to 42)-induced mouse model of Alzheimer's disease assessed as increase in spontaneous alteration at 10 mg/kg/day, po pretreated with amyloid beta42 for 3 days followed by treatment with compound and measured after 9 days measured by Y-maze test; type: functional, organism-based; conditions: time 9.0 day
[31] = Toxicity in amyloid beta (1 to 42)-induced mouse model of Alzheimer's disease assessed as changes in swimming speed at 10 mg/kg/day, po measured after 9 days; type: organism-based; conditions: in vivo, 216 h, time 9 day
[32] = molecular target: T1, Acetylcholinesterase (Mus musculus) (UniProt P21836); conditions: ICR, dose 10.0 mg/kg, time 1.5 hrs
T1 sequence (whole entry): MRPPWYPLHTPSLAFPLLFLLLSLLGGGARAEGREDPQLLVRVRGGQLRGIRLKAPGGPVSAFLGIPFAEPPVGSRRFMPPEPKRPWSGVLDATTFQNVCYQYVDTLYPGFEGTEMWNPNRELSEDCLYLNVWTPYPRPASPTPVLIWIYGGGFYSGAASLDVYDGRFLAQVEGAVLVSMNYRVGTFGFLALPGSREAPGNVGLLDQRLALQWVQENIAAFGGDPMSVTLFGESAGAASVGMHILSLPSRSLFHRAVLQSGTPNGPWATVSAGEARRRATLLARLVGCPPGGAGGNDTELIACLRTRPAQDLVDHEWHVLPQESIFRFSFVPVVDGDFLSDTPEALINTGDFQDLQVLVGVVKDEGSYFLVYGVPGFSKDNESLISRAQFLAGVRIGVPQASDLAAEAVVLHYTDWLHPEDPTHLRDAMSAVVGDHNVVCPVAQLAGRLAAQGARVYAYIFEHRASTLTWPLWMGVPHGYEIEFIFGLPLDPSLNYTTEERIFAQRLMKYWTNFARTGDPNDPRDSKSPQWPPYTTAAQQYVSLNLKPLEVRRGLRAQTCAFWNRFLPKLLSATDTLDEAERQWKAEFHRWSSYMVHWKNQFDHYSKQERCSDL

Sequence of Acetylcholinesterase (Homo sapiens, UniProt P22303) (P22303 whole entry): as the sequence (P22303 whole entry, looked up) above

Molecule `O=C(Nc1cncc(OCC2CCN(Cc3ccc(F)cc3)CC2)c1)c1ccnc(NC(=O)C2CC2)c1` has a pIC50 [1] of 9.00, a pIC50 [2] of 7.93 and a pIC50 [3] of 5.28. For the same molecule, the Selectivity Index [4] was 5300, the inhibition [5] was “inactive” and the inhibition [6] was “inactive”. The inhibition [7] was “inactive”, the inhibition [8] was “inactive” and the inhibition [9] was “inactive”. The inhibition [10] was “inactive”, the inhibition [11] was “inactive” and the inhibition [12] was “inactive”. For the same molecule, the inhibition [13] was “inactive”, the Papp [14] was 10.5 ×10⁻⁶ cm/s and the concentration at 1.5 h [15] was 113 ng/g. The concentration at 1 h [16] was 405 ng/g, the Kp at 1 h [17] was 0.153 and the Kp at 1.5 h [18] was 0.33. For the same molecule, the Activity [19] was 66%, the AUC(0-inf) [20] was 1260 ng·h/mL and the AUC(0-inf) [21] was 407 ng·h/mL. It also gave a Cmax [22] of 159 ng/mL, a half-life [23] of 7.6 h and a half-life [24] of 5.2 h. The MRT inf [25] was 10.9 h, the MRT inf [26] was 5.1 h and the inhibition [27] was “Active”. The inhibition [28] was “inactive”, the inhibition [29] was “Dose-Dependent Effect” and the Activity [30] was “Active”. The Activity [31] was “Non-Toxic” and the inhibition [32] was 46.2%.

Reference: ChEMBL document CHEMBL4831493 (Eur J Med Chem, 2021)
